Literature values as cited in US20040029892A1, “Compositions and dosage forms for application in the oral cavity in the treatment of mykoses” (priority 2003, published 2004).

Settings: almost insoluble

CCC(C)n1ncn(-c2ccc(N3CCN(c4ccc(OCC5COC(Cn6cncn6)(c6ccc(Cl)cc6Cl)O5)cc4)CC3)cc2)c1=O (racemic) [itraconazole, (±)-cis-4-[4-[4-[4-[[2-(2,4-dichlorophenyl)-2(1H-1,2,4-triazol-1-yl-methyl)-1,3-dioxolan-4-yl]methoxy]phenyl]-1piperazinyl]phenyl]-2,4-dihydro-2-(1-methylpropyl)-3H-1,2,4-triazol-3-one]
solubility in water: less than 1 μg/ml
